In ChEMBL document CHEMBL1221268, “Synthesis of a series of novel 2,4,5-trisubstituted selenazole compounds as potential PLTP inhibitors” (Bioorg Med Chem Lett, 2010):

Columns and labels:
[1] = molecular target: Phospholipid transfer protein (Homo sapiens, UniProt P55058); experiment: Inhibition of PLTP
[2] = molecular target: T1, Cholesteryl ester transfer protein (Homo sapiens, UniProt P11597); experiment: Inhibition of CETP
T1 sequence (P11597 whole entry): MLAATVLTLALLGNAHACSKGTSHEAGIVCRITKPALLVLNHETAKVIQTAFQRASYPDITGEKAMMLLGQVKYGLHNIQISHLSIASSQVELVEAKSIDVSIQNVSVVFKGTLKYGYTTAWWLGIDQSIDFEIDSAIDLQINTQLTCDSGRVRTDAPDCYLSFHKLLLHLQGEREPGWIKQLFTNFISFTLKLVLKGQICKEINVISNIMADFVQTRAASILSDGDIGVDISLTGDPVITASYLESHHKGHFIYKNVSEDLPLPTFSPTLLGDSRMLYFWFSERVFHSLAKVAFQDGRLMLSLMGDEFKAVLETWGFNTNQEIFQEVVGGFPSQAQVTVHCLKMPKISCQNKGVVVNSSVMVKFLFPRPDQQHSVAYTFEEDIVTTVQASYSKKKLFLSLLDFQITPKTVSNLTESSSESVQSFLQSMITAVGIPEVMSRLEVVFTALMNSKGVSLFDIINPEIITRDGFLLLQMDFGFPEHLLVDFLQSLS

Phospholipid transfer protein, sequence (P55058 whole entry): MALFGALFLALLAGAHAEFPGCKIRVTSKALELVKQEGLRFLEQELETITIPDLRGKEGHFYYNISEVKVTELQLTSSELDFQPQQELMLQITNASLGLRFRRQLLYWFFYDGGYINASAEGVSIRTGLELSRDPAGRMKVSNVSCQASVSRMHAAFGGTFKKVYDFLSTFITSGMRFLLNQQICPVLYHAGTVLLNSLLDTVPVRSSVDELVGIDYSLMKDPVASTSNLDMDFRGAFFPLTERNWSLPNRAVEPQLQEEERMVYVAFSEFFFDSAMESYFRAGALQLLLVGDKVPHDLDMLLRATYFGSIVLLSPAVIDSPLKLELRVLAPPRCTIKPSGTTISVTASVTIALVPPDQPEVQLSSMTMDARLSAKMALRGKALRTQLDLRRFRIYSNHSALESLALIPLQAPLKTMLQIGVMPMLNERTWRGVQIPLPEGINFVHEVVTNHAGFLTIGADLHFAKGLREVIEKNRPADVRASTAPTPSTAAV

IC50 [1] | SMILES | IC50 ([1]; read-out: IC50) [µM] | IC50 [2] | IC50 ([2]; read-out: IC50) [µM]
 | CCCCc1[se]c(NC(C)=O)nc1-c1ccc(O)cc1 | 60 | Not Active | 
Not Active | COc1cc(C(=O)Nc2nc(-c3ccccc3)c(-c3ccccc3)[se]2)cc(OC)c1OC |  | Not Active | 
 | CCCCc1[se]c(NC(=O)c2ccc(OC)c(OC)c2)nc1-c1ccc(OC)cc1 | 80 | Not Active | 
 | O=C(Nc1nc(-c2ccc(O)cc2)c(Cc2ccccc2)[se]1)c1ccc(O)c(O)c1 | 35 | Not Active | 
 | CCCCc1[se]c(NC(=O)c2cc(OC)c(OC)c(OC)c2)nc1-c1ccc(OC)cc1 | 150 | Not Active | 
 | O=C(Nc1nc(-c2ccccc2)c(-c2ccccc2)[se]1)c1cc(O)c(O)c(O)c1 | 25 | Not Active | 
 | O=C(Nc1nc(-c2ccc(O)cc2)c(Cc2ccccc2)[se]1)c1cc(O)c(O)c(O)c1 | 32 | Not Active | 
 | CCCCCC(=O)Nc1nc(-c2ccc(O)cc2)c(Cc2ccccc2)[se]1 | 60 |  | 25
 | CCc1[se]c(NC(=O)c2cc(O)c(O)c(O)c2)nc1-c1ccc(O)cc1 | 32 | Not Active | 
 | CCc1[se]c(NC(=O)c2ccc(Cl)cc2)nc1-c1ccc(O)cc1 | 60 | Not Active | 
Not Active | O=C(Nc1nc(-c2ccccc2)c(-c2ccccc2)[se]1)c1ccccc1 |  | Not Active | 
 | CCCCc1[se]c(NC(=O)c2ccc(Cl)cc2)nc1-c1ccc(O)cc1 | 60 | Not Active | 
Not Active | CCc1[se]c(NC(=O)c2cc(OC)c(OC)c(OC)c2)nc1-c1ccc(OC)cc1 |  | Not Active | 
 | COc1ccc(-c2nc(NC(=O)c3ccc([N+](=O)[O-])cc3)[se]c2Cc2ccccc2)cc1 | 85 | Not Active | 
 | O=C(Nc1nc(-c2ccccc2)c(-c2ccccc2)[se]1)c1ccc(O)c(O)c1 | 8 | Not Active | 
 | COc1ccc(-c2nc(NC(=O)c3ccc(OC)c(OC)c3)[se]c2Cc2ccccc2)cc1 | 80 |  | 30
Not Active | O=C(Nc1nc(-c2ccccc2)c(-c2ccccc2)[se]1)c1cc(F)c(F)c(F)c1 |  | Not Active | 
 | CCc1[se]c(NC(=O)c2ccc(OC)c(OC)c2)nc1-c1ccc(OC)cc1 | 100 | Not Active | 
 | CCCCc1[se]c(NC(=O)c2cc(O)c(O)c(O)c2)nc1-c1ccc(O)cc1 | 10 | Not Active | 

SMILES | IC50 [1] | IC50 ([1]; read-out: IC50) [µM] | IC50 [2] | IC50 ([2]; read-out: IC50) [µM]
CCc1[se]c(NC(=O)c2ccc(Cl)cc2)nc1-c1ccc(OC)cc1 | Not Active |  | Not Active | 
COc1ccc(-c2nc(NC(=O)c3cc(OC)c(OC)c(OC)c3)[se]c2Cc2ccccc2)cc1 | Not Active |  |  | 25
